Earlier results on one compound are cited in US20230021879A1, “SYNTHESIS OF 3 -RNA OLIGONUCLEOTIDES” (ALNYLAM PHARMACEUTICALS, INC., priority 2019, published 2023).

Structures are written as SMILES.

This data set addresses P-glycoprotein 1 (P-gp) (Homo sapiens, UniProt P08183). The conditions noted are these: earlier studies.

Sequence of P-glycoprotein 1 (P-gp) (P08183 whole entry, species assumed): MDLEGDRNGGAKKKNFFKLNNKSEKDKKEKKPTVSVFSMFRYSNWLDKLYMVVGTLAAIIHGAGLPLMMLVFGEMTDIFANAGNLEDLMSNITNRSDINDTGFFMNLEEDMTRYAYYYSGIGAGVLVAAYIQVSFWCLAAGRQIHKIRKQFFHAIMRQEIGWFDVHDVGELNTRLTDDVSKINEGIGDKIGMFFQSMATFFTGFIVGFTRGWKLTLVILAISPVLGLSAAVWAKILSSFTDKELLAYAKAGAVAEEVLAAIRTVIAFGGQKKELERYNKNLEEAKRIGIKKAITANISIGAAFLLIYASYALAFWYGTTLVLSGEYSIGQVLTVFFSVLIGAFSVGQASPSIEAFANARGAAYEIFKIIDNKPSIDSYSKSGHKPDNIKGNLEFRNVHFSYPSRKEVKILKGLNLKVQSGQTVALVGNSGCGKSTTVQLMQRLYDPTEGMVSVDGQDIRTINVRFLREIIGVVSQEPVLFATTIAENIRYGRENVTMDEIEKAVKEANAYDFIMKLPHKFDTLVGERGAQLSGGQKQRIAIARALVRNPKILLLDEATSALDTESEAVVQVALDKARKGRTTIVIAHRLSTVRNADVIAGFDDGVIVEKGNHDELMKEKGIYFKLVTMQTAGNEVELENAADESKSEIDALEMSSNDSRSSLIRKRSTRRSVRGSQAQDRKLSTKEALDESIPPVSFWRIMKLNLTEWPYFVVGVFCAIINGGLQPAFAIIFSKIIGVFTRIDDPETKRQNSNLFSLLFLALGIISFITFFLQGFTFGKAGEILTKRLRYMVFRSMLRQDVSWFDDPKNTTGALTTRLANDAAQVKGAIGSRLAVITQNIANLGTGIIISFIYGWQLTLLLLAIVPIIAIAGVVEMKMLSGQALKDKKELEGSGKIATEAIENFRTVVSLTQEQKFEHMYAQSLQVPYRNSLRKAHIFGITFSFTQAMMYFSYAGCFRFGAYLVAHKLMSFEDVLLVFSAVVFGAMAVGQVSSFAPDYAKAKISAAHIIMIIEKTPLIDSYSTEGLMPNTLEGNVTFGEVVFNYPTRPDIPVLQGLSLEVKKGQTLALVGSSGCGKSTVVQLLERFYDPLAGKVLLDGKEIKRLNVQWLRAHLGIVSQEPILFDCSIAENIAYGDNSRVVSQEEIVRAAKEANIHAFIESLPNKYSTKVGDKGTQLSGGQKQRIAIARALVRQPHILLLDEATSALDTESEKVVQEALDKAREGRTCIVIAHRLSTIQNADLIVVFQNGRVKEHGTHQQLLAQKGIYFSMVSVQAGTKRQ

With `C[C@@H]1O[C@@H](O[C@H]2C[C@](O)(C(=O)CO)Cc3c(O)c4c(c(O)c32)C(=O)c2ccccc2C4=O)[C@H](I)[C@H](O)[C@H]1O` [Annamycin, (7S,9S)-7-(((2R,3R,4R,5R,6S)-4,5-dihydroxy-3-iodo-6-methyltetrahydro-2H-pyran-2-yl)oxy)-6,9,11-trihydroxy-9-(2-hydroxyacetyl)-7,8,9,10-tetrahydrotetracene-5,12-dione], the P-gp substrate status entry is “poor substrate”.
